Laboratory results taken from patent publication US20100291041A1, “BACTERIOPHAGE PREPARATION AND USE” (INNOVATIONS-TRANSFER UPHOFF GMBH & CO. KG, priority 2008, published 2010).

Columns and labels:
[1] = own microbiological tests
[2] = use in wounds, albumin present; from EP 0 700 249 B1; cited from earlier work
Pseudomonas aeruginosa = Pseudomonas aeruginosa versus Staphylococcus aureus; from EP 0 700 249 B1; cited from earlier work
P. aeruginosa biofilms = conditions: combination with ultrasound below 70 kHz; Qian et al. 1997; cited from earlier work

| Substance | loss of action by the factor (effect of albumin) [1] | loss of action caused by albumin (in wounds) [2] | activity lower by a factor, in comparison with Staphylococcus aureus (Pseudomonas aeruginosa) | increase in effect versus antibiotic alone (P. aeruginosa biofilms) [%] |
| --- | --- | --- | --- | --- |
| polyhexamethylene biguanide [polyhexanide] | about 10 | considerable loss of action | ~10 | – |
| gentamicin | – | – | – | > 250 |
